Laboratory results taken from patent publication US9067894B1, “Compound, composition, and method of activating GIRK potassium channel and use of same for treating conditions of interest” (Vanderbilt University, priority 2013, dated 2015).
Values after ≈ are worked out from the molar mass of the structure shown.

Assays:
Purinergic P2Y = assay: Radioligand displacement (Ricerca); format: binding, rat; settings: 10 μM
Adrenergic α2A = biological target: T1, Adrenergic α2A (Homo sapiens, UniProt P08913); assay: Radioligand displacement (Ricerca); format: binding
T1 construct: Ricerca (contract assay)
T1 sequence (P08913 whole entry): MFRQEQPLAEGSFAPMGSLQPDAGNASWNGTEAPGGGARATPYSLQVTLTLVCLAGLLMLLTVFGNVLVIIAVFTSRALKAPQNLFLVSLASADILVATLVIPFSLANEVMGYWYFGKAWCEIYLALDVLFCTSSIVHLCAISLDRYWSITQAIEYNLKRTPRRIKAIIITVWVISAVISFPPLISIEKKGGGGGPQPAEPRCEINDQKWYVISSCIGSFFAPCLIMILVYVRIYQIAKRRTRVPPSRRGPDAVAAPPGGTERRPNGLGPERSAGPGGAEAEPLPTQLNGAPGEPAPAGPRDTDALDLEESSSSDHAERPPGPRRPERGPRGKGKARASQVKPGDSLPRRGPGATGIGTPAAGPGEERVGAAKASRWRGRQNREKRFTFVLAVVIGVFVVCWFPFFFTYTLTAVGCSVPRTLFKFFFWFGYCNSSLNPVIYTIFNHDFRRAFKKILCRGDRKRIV

Glutamate (NMDA, PCP) = assay: Radioligand displacement (Ricerca); format: binding, rat; settings: 10 μM
Adrenergic α1D = biological target: T2, Adrenergic α1D (Homo sapiens, UniProt P25100); assay: Radioligand displacement (Ricerca); format: binding
T2 construct: Ricerca (contract assay)
T2 sequence (P25100 whole entry): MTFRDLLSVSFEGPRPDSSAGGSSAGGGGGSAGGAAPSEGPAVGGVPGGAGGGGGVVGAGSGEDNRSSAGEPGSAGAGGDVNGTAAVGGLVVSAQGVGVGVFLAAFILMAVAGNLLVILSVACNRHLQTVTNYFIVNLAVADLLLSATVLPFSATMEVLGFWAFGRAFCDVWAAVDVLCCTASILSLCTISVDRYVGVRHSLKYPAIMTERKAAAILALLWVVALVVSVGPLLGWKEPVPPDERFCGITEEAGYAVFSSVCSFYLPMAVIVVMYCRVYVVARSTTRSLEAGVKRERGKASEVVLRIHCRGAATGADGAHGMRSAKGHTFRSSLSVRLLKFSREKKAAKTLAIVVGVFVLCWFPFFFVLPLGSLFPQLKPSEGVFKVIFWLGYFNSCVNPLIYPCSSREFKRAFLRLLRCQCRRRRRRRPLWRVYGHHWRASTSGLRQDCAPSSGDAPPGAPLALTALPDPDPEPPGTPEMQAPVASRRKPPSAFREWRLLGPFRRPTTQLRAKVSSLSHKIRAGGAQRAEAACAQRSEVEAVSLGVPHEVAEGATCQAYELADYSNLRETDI

Opiate (DOP) = biological target: T3, Opiate (DOP) (Homo sapiens, UniProt P41143); assay: Radioligand displacement (Ricerca); format: binding
T3 construct: Ricerca (contract laboratory that ran the panel)
T3 sequence (P41143 whole entry): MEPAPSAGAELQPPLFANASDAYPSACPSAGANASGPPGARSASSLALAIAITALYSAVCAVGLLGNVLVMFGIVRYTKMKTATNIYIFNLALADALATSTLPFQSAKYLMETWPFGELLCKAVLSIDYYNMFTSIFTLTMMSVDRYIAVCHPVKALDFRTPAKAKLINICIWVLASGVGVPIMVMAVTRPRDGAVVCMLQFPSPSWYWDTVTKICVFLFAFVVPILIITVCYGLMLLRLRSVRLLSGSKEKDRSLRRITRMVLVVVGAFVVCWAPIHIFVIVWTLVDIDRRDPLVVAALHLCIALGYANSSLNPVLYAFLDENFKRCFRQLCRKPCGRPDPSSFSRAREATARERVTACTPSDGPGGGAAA

Endothelin ETA = biological target: T4, Endothelin ETA (Homo sapiens, UniProt P25101); assay: Radioligand displacement (Ricerca); format: binding
T4 construct: Ricerca
T4 sequence (P25101 21-427): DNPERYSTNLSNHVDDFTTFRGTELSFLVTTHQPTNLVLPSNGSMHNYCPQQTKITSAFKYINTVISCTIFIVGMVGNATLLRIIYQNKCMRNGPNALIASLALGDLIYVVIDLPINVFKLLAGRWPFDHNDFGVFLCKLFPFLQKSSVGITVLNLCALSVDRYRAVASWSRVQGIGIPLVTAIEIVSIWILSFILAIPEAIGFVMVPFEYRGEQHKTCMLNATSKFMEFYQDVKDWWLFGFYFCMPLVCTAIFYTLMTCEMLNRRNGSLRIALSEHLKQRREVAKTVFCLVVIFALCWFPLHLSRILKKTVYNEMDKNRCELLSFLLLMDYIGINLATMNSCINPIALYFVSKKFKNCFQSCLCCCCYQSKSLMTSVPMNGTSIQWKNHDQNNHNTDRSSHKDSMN

Glutamate (kainate) = assay: Radioligand displacement (Ricerca); format: binding, rat; settings: 10 μM
Solubility = format: physicochemical
GIRK1/2 = biological target: T5, GIRK1/2 (Homo sapiens, UniProt P48051+P48549); assay: Whole-cell voltage-clamp, GIRK1/2-expressing HEK-293 cells; format: cell-based; set-up: host or cells: HEK-293
T5 sequence (P48549 1-501): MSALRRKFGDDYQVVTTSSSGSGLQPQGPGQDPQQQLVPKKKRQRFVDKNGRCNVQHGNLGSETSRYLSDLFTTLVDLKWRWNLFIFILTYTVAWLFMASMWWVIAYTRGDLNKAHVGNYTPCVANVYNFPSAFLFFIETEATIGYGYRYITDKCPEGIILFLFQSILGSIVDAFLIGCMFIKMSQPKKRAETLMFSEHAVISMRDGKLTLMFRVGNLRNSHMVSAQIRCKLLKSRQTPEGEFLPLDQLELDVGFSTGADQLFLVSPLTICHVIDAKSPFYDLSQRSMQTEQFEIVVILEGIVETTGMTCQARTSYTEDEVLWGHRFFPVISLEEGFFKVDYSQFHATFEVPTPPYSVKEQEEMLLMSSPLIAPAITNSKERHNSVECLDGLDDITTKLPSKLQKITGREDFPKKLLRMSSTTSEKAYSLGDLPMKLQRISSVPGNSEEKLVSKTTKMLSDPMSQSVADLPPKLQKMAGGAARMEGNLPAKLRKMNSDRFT
T5 sequence (P48051 1-423): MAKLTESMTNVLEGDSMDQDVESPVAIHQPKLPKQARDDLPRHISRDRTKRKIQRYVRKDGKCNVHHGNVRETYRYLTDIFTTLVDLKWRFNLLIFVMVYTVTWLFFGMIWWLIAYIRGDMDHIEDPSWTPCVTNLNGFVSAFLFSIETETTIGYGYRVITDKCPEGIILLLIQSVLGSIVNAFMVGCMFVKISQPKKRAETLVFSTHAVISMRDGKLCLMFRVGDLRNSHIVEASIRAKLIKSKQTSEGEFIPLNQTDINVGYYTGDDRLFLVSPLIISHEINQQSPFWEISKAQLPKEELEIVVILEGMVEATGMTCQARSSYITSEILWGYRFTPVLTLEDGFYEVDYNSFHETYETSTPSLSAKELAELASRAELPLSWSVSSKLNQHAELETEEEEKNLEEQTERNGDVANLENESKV
Source text: Cell Line Construction and Cell Culture. HEK-293 cells co-expressing human GIRK1/2 and rat mGlu8 were generated as previously described (Niswender et al., 2008). A HEK-293 cell line (ATCC, Manassas, Va.) expressing human GIRK1 and human GIRK2 was constructed by transfecting HEK-293 cells with GIRK1 and GIRK2 (Origene, Rockville, Md.) cloned into the pBudCE4.1 vector (Life Technologies, Carlsbad, Calif.) using FuGene 6 (Promega, Madison, Wis.) transfection reagent. Unless otherwise noted, other ion channel-expressing cells were prepared by transfecting HEK-293 cells with individual or combinations of subunits: GIRK1, pCMV6-A-BSD; GIRK2, pCMV6-A-puro; GIRK3, pCMV6-A-hygro; GIRK4, pCMV6-A-AC; Kv7.4, pIRESneo3. The Kir2.1 and hERG-expressing cell lines were made by transfecting T-REx-293 cells (Life Technologies, Carlsbad, Calif.) with Kir2.1 and Kv11.1, respectively, cloned into pcDNA5TO. Monoclonal cell lines were produced by limiting-dilution cloning of antibiotic-resistant cells and functional selection using the thallium flux assay described below. Unless otherwise noted, cells were maintained in Minimal Essential Medium, Alpha Medium (Mediatech, Manassas, Va.) supplemented with 10% fetal bovine serum (Sigma-Aldrich, Saint Louis, Mo.) and GlutaGro (Mediatech, Manassas, Va.), referred to henceforth as cell culture medium. […]
A single-cell suspension of HEK-293 cells stably transfected with the appropriate ion channels were plated into TC-treated 35 mm polystyrene dishes at ˜15% confluence and incubated overnight in a 5% CO2 cell culture incubator at 37° C. […] Whole cell currents were recorded in 20K extracellular solution at −70 mV using a Pico 1 amplifier (Tecella, Foothill Ranch, Calif.) controlled by WINWCP 4.X (University of Strathclyde, Glasgow, Scotland, UK). […] One day after transfection, cells were plate into 35 mm polystyrene dishes, incubated and recorded as described above. […]
Voltage-clamp data were analyzed by converting current amplitudes to current density by dividing by each cell's membrane capacitance estimated from capacitance compensation. […]

## Cc1cc(NC(=O)Nc2ccc(F)c(F)c2)n(-c2ccccc2)n1 [VU0456810, 1-(3,4-difluorophenyl)-3-(3-methyl-1-phenyl-1H-pyrazol-5-yl)urea]
Purinergic P2Y
  % Inhibition: 4%
Adrenergic α2A
  inhibition at 10 µM: 4%
Glutamate (NMDA, PCP)
  % Inhibition: 1%
Adrenergic α1D
  inhibition at 10 µM: -3%
Opiate (DOP)
  inhibition at 10 µM: -4%
Endothelin ETA
  inhibition at 10 µM: 1%
Glutamate (kainate)
  % Inhibition: 1%
Solubility
  solubility: 17.5 µM (≈ 5.75 µg/mL)
GIRK1/2; 10 μM, local superfusion
  time to 90% of maximal current amplitude after application: approximately 2 seconds
GIRK1/2; after application was terminated
  washout time: nearly a minute
GIRK1/2; cell line GIRK1-2, average ± SEM
  EC50: 0.584 ± 0.175 µM
